In patent US20070154567A1, “Use of mercury to treat cancer” (priority 2006, published 2007):

System: apocrine gland adenocarcinoma, metastatic to lymph node
Experiment: Oral inorganic mercury (II) treatment of a pet Labrador Retriever after surgical removal of the lump: blood data and clinical follow-up
Format: in vivo, dog
Design: MCV / MCH / MCHC / Neutrophils, absolute / Bands / Lymphocytes, absolute / Monocytes, absolute / Eosinophils, absolute / Basophils, absolute: unit not given here
Description: A 7 years old, 106 lbs male Labrador Retriever, was diagnosed with apocrine gland adenocarcinoma, metastatic to lymph node. The lump on the neck was surgically removed and biopsy analysis was performed.
The owner chose not to pursue chemo- and radiation therapies. Instead, the dog undertook a full course of inorganic mercury (II) treatment. The treatment consisted of total of 150 days including three 30-day treatment courses and two 30-day interval periods between courses. The formulation contained 1 mM mercury acetate in 20 mM sodium acetate buffer, pH 4.5, with 100 mM sucrose and 150 mM sodium chloride additives. The formulation was introduced orally to the pet three times a day 1 hour before taking food at 0.5 micromole Hg^2+/kg/day.
The blood data at Day 175 were normal (see Table 1).

Question: For `CC(=O)[O-].CC(=O)[O-].[Hg+2]` [inorganic mercury (II), mercury acetate], which “health of the dog” value (13 months after completing the treatment) is on record?
Answer: continues to be healthy

Question: What about the “ALT (SGPT)” value (Day 175) of the same compound?
Answer: 52 U/L

Question: And the “AST (SGOT)” value (Day 175)?
Answer: 29 U/L

Question: And the Albumin (Day 175)?
Answer: 3.9 g/dL

Question: And the “Albumin/Globulin Ratio” value (Day 175)?
Answer: 1.1

Question: And the “Alkaline Phosphatase (ALP)” value (Day 175)?
Answer: 94 U/L

Question: And the “BUN/Creatinine Ratio” value (Day 175)?
Answer: 17

Question: What about the Bands (Day 175) of the same compound?
Answer: 0

Question: And the “Basophils, absolute” value (Day 175)?
Answer: 0

Question: What about the CPK (Day 175) of the same compound?
Answer: 267 U/L

Question: What about the Calcium (Day 175) of the same compound?
Answer: 10.3 mg/dL

Question: And the Chloride (Day 175)?
Answer: 115 mE/L

Question: And the Cholesterol (Day 175)?
Answer: 322 mg/dL

Question: What about the Creatinine (Day 175) of the same compound?
Answer: 1.2 mg/dL

Question: And the “Eosinophils, (%)” value (Day 175)?
Answer: 5%

Question: What about the “Eosinophils, absolute” value (Day 175) of the same compound?
Answer: 445

Question: What about the Globulin (Day 175) of the same compound?
Answer: 3.4 g/dL

Question: What about the Glucose (Day 175) of the same compound?
Answer: 105 mg/dL

Question: And the Hematocrit (Day 175)?
Answer: 53.7%

Question: What about the Hemoglobin (Day 175) of the same compound?
Answer: 17.7 g/dL

Question: And the “Lymphocytes, (%)” value (Day 175)?
Answer: 31%

Question: And the “Lymphocytes, absolute” value (Day 175)?
Answer: 2759

Question: What about the MCH (Day 175) of the same compound?
Answer: 21.9

Question: And the MCHC (Day 175)?
Answer: 33.0

Question: What about the MCV (Day 175) of the same compound?
Answer: 66

Question: And the “Monocytes, (%)” value (Day 175)?
Answer: 4%

Question: And the “Monocytes, absolute” value (Day 175)?
Answer: 356

Question: What about the “Neutrophils, (%)” value (Day 175) of the same compound?
Answer: 60%

Question: And the “Neutrophils, absolute” value (Day 175)?
Answer: 5340

Question: And the Phosphorus (Day 175)?
Answer: 4.6 mg/dL

Question: And the Platelet count (Day 175)?
Answer: 294 10^3/microl

Question: What about the Potassium (Day 175) of the same compound?
Answer: 5.1 mE/L

Question: What about the RBC (Day 175) of the same compound?
Answer: 8.1 10^6/microl

Question: What about the Sodium (Day 175) of the same compound?
Answer: 151 mE/L

Question: And the “Total Billirubin” value (Day 175)?
Answer: 0.2 mg/dL

Question: And the “Total Protein” value (Day 175)?
Answer: 7.3 g/dL

Question: What about the “Urea Nitrogen” value (Day 175) of the same compound?
Answer: 20 mg/dL

Question: What about the WBC (Day 175) of the same compound?
Answer: 8.9 10^3/microl

Question: What about the blood data (Day 175) of the same compound?
Answer: normal

Question: What about the “metastases on chest x-ray” value (Day 356, owner's notes) of the same compound?
Answer: no metastases

Question: What about the “metastasis or new mass growth in abdominal, lymph nodes or chest” value (post treatment evaluation by oncologist and veterinarian, X-rays and ultrasound) of the same compound?
Answer: no evidence of metastasis or new mass growth
